pIC50: −log10 of the molar value.
System: KE-37
Experiment: Anticancer activity against human KE-37 cells assessed as reduction in cell viability
Type: functional, cell-based

## C=CCc1cccc(/C=N/NC(=O)CN2CCN(Cc3ccccc3)CC2)c1O [PAC-1]
  pIC50: 6.62
